# Experimental data as given in patent US20250325531A1, “TREATMENT OF SYSTOLIC DYSFUNCTION” (MyoKardia, Inc., priority 2024, published 2025).
# System: patients with stable HFrEF
# Assay: Safety and tolerability (TEAEs, troponin, ECG, Holter) in SAD cohorts, patients with stable HFrEF
# Type: in vivo, human
# Experimental: Safety and efficacy assessments were conducted by measuring patients' vital signs and laboratory parameters; performing TTE to measure, e.g., systolic ejection time; performing electrocardiograms (e.g., 12-lead ECG), real-time ECG telemetry (e.g., at least 3-lead), and Holter ECG; and measuring levels of troponin (e.g., troponin I and/or troponin T) and 4β-hydroxycholesterol.
# The following safety laboratory parameters were measured: (1) hematology parameters (CBC, including differential count, and platelet count); (2) serum chemistry parameters (e.g., sodium, potassium, chloride, bicarbonate, calcium, magnesium, urea, creatinine, ALP, ALT, AST, total bilirubin, glucose, and CPK); and (3) urinalysis parameters (e.g., pH, protein, glucose, leukocyte cstcrasc, and blood).
# Abnormal and/or rising troponin values (as per investigator's judgment and taking into account potential baseline troponin elevation frequently observed in heart failure) led to the patient being clinically evaluated for possible myocardial ischemia. […] The entire clinical context (e.g., signs, symptoms, new ECG changes, new troponin, and CK-MB abnormalities) was evaluated and correlated with any other relevant clinical findings, patient's medical history, and laboratory data to determine the clinical significance of the findings. Troponin results performed on Day 2 of Part 1 (SAD) and Day 10 of Part 2 (MAD) at a local lab were reviewed prior to the patient being discharged the next day.
# Primary endpoints for this study (safety measures) included the following: treatment-emergent AEs and SAEs; ECG recordings, interpretation, and intervals; vital signs; serum Troponin I concentrations; laboratory abnormalities; and physical examination abnormalities.
# [1] = SAD Cohorts 1 and 2, 175 mg (n = 8)
# [2] = SAD Cohorts 1 and 2, 350 mg (n = 8)
# [3] = SAD Cohorts 1 and 2, 400 mg Split Dose (n = 4)
# [4] = SAD Cohorts 1 and 2, 550 mg Split Dose (n = 2)
# [5] = SAD Cohorts 1 and 2, Total Active (n = 12)
smiles,measurement,setting,value
"Cn1cc(S(=O)(=O)[C@@](C)(F)C2CCN(C(=O)Nc3ccon3)CC2)c(C(F)F)n1 [Compound I, (R)-4-(1-((3-(difluoromethyl)-1-methyl-1H-pyrazol-4-yl)sulfonyl)-1-fluoroethyl)-N-(isoxazol-3-yl) piperidine-1-carboxamide]","maximum troponin I level, one subject","550 mg, 24 hours post-dose (4×ULN)",0.12 ng/mL
same,"TEAE: Any SOC, any PT",[1],2 (25.0) n (%)
same,TEAE: Dyspnea,[1],1 (12.5) n (%)
same,TEAE: Fatigue,[1],1 (12.5) n (%)
same,TEAE: Infusion site discomfort,[1],1 (12.5) n (%)
same,TEAE: Urinary tract infection,[1],1 (12.5) n (%)
same,"TEAE: Any SOC, any PT",[2],5 (62.5) n (%)
same,TEAE: Bursitis,[2],1 (12.5) n (%)
same,TEAE: Diarrhoea,[2],1 (12.5) n (%)
same,TEAE: Hypomagnesemia,[2],1 (12.5) n (%)
same,TEAE: Oral contusion,[2],1 (12.5) n (%)
same,TEAE: Proteinuria,[2],1 (12.5) n (%)
same,TEAE: Anemia,[3],1 (25.0) n (%)
same,"TEAE: Any SOC, any PT",[3],3 (75.0) n (%)
same,TEAE: Neck pain,[3],1 (25.0) n (%)
same,TEAE: Orthostatic hypotension,[3],1 (25.0) n (%)
same,TEAE: Ventricular extrasystoles,[3],1 (25.0) n (%)
same,"TEAE: Any SOC, any PT",[4],1 (50.0) n (%)
same,TEAE: Cardiac discomfort,[4],1 (50.0) n (%)
same,TEAE: Dyspnea,[4],1 (50.0) n (%)
same,TEAE: Troponin increase,[4],1 (50.0) n (%)
same,TEAE: Anemia,[5],1 (8.3) n (%)
same,"TEAE: Any SOC, any PT",[5],10 (83.3) n (%)
same,TEAE: Bursitis,[5],1 (8.3) n (%)
same,TEAE: Cardiac discomfort,[5],1 (8.3) n (%)
same,TEAE: Diarrhoea,[5],1 (8.3) n (%)
same,TEAE: Diverticulitis,[5],1 (8.3)− n (%)
same,TEAE: Dyspnea,[5],1 (8.3) n (%)
same,TEAE: Fatigue,[5],1 (8.3) n (%)
same,TEAE: Hypomagnesemia,[5],1 (8.3) n (%)
same,TEAE: Infusion site discomfort,[5],1 (8.3) n (%)
same,TEAE: Neck pain,[5],1 (8.3) n (%)
same,TEAE: Oral contusion,[5],1 (8.3) n (%)
same,TEAE: Orthostatic hypotension,[5],1 (8.3) n (%)
same,TEAE: Proteinuria,[5],1 (8.3) n (%)
same,TEAE: Troponin increase,[5],1 (8.3) n (%)
same,TEAE: Urinary tract infection,[5],1 (8.3) n (%)
same,TEAE: Ventricular extrasystoles,[5],1 (8.3) n (%)
